From US20080248511A1, “METHODS TO QUENCH LIGHT FROM OPTICAL REACTIONS” (priority 2007, published 2008) come the findings set out here.

The target in one assay is firefly luciferase (Photinus pyralis, UniProt P08659). Kind of assay: Non-detergent compound screen, firefly luciferase (Example 6). Particulars: 0.5% Tergitol NP-9, 0.03% BDDABr; for remaining activity at 23 µM: inhibitor 23 μM; for remaining activity at 23 µM / remaining activity at 153 µM / remaining activity at 1000 µM / remaining activity at 10 µM / remaining activity at 100 µM: read-out: Retained Firefly Luciferase Value (%); for remaining activity at 153 µM: inhibitor 153 μM. The class given is biochemical. The protocol:
(§1) Each compound was diluted into 200 mM MOPS pH 6.7, 4 μM MgSO4, 1 mM CDTA, 0.5% Tergitol NP-9, 0.05% Mazu-DF-204, 0.03% BDDABr, 30 mM thiourea, 1 mM bis-(2-mercaptoethylsulfone) (BMS), 4 μM CoA, and 1 μM 5-fluoroluciferin. Just prior to the luciferase reaction, 0.1% Prionex® (Pentapharm) and 2.9 μM coelenterazine-h (Promega) were added to each solution.
(§2) The firefly luciferase and Renilla luciferase enzymes were diluted as described in Examples 3 and 5. The luciferase reactions were initiated by adding 50 μl of the firefly luciferase and Renilla luciferase enzyme solution to 50 μl of reagent solution. The reactions were performed as described above. The retained Renilla and firefly luciferase-mediated luminescence and selectivity values for each inhibitor tested are listed in Table 6.

The next assay addresses T1, Renilla luciferase (Renilla reniformis, UniProt P27652).
T1 sequence (P27652 1-311): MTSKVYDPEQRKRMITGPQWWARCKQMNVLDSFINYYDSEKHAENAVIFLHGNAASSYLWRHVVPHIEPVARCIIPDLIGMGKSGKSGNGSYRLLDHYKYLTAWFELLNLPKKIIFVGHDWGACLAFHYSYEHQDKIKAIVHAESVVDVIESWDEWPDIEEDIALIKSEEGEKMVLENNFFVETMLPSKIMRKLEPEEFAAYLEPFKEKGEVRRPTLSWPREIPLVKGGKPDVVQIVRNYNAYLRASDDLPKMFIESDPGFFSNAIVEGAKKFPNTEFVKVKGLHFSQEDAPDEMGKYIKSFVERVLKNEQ
Kind of assay: Non-detergent compound screen, Renilla luciferase (Example 6). The class given is biochemical. Particulars: for remaining activity at 23 µM / remaining activity at 153 µM / remaining activity at 1000 µM / remaining activity at 10 µM / remaining activity at 100 µM / Retained Renilla Luciferase Value (%): 0.5% Tergitol NP-9, 0.03% BDDABr; for remaining activity at 23 µM / remaining activity at 153 µM / remaining activity at 1000 µM / remaining activity at 10 µM / remaining activity at 100 µM: read-out: Retained Renilla Luciferase Value (%). The protocol: as §1, §2

Sequence of firefly luciferase (P08659 whole entry): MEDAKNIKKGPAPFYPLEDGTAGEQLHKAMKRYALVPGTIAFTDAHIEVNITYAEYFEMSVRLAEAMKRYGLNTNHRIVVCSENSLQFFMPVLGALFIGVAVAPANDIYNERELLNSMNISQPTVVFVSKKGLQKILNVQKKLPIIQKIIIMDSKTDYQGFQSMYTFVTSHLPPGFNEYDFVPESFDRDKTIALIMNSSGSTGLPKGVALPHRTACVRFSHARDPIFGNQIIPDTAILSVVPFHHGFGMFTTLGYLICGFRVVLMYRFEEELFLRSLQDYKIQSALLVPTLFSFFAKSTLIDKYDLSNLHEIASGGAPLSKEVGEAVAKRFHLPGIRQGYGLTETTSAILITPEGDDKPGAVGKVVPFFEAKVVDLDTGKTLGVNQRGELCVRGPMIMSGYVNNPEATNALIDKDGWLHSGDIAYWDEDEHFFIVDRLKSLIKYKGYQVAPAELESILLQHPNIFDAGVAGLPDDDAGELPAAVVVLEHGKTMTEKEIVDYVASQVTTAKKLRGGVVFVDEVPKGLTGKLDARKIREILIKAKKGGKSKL

Turning to `C=C(C(=O)NCc1ccc(OC)cc1)c1ccc2oc(=O)cc(C)c2c1` [Compound 3058, N-(4-methoxybenzyl)-2-(4-methyl-2-oxo-2H-chromen-6-yl)acrylamide], the figures for the remaining activity at 23 µM on firefly luciferase and on Renilla luciferase (inhibitor 23 μM) were 101% and 96%, respectively. Also, the remaining activity at 153 µM at firefly luciferase is 102%; on Renilla luciferase (inhibitor 153 μM), 98%. The remaining activity at 1000 µM at firefly luciferase (inhibitor 1000 μM) was 103%; on Renilla luciferase (inhibitor 1000 μM), 98.8%. The “inhibitor of Renilla luciferase, grade in words” value (shortened to “inhibitor of Renilla luciferase”) at Renilla luciferase is listed as “suitable inhibitors of Renilla luciferase”. Besides, the “Selectivity Value” at Renilla luciferase (inhibitor 23 μM) came out at 1.05; on Renilla luciferase (inhibitor 153 μM) it was 1.04; at Renilla luciferase (inhibitor 1000 μM), 1.04.

As for `COc1ccc(CNC(=O)/C=C/c2ccc3[nH]ccc3c2)cc1` [Compound 3056, (E)-3-(1H-indol-5-yl)-N-(4-methoxybenzyl)acrylamide], the remaining activity at 10 µM is 101% at firefly luciferase (inhibitor 10 μM) and 93% at Renilla luciferase (inhibitor 10 μM). The remaining activity at 100 µM on firefly luciferase (inhibitor 100 μM) turned out to be 100%; at Renilla luciferase (inhibitor 100 μM), 79%. The remaining activity at 1000 µM at firefly luciferase (inhibitor 1000 μM) is 89%; on Renilla luciferase (inhibitor 1000 μM), 32.6%. On Renilla luciferase, the “inhibitor of Renilla luciferase” value is on record as “inhibitors of Renilla luciferase”. The “Selectivity Value” on Renilla luciferase (inhibitor 10 μM) is reported as 1.1; on Renilla luciferase (inhibitor 100 μM), 1.3; at Renilla luciferase (inhibitor 1000 μM), 2.7.

As to `COc1ccc(CNC(=O)/C=C/c2ccc3ncccc3c2)cc1` [Compound 3046, (E)-N-(4-methoxybenzyl)-3-(quinolin-6-yl)acrylamide], the remaining activity at 10 µM on firefly luciferase (inhibitor 10 μM) was determined as 100%; on Renilla luciferase (inhibitor 10 μM), 96%. Further, the values for the remaining activity at 100 µM on firefly luciferase (inhibitor 100 μM) and on Renilla luciferase (inhibitor 100 μM) were 99% and 78%, respectively. Besides, the remaining activity at 1000 µM on firefly luciferase (inhibitor 1000 μM) was found to be 83%; at Renilla luciferase (inhibitor 1000 μM), 24.5%. In addition, the “inhibitor of Renilla luciferase” value against Renilla luciferase was “inhibitors of Renilla luciferase”. For the same compound, the “Selectivity Value” was 1.0 on Renilla luciferase (inhibitor 10 μM), 1.3 on Renilla luciferase (inhibitor 100 μM) and 3.4 at Renilla luciferase (inhibitor 1000 μM).

On to `CCCCCCCC[N+](C)(C)CCc1c[nH]c2ccc(/C=C/C(=O)NCc3ccc(OC)cc3)cc12.[I-]` [Compound 3070, (E)-N-(2-(5-(3-(4-methoxybenzylamino)-3-oxoprop-1-enyl)-1H-indol-3-yl)ethyl)-N,N-dimethyloctan-1-ammonium iodide], for which the “Retained Firefly Luciferase Value (%)” value on firefly luciferase (inhibitor 10 μM) is reported as 99%; at firefly luciferase (inhibitor 100 μM), 96%; at firefly luciferase (inhibitor 1000 μM), 86%. Besides, the “inhibitor of Renilla luciferase” value at Renilla luciferase is “excellent inhibitors of Renilla luciferase”. Also, the “Selectivity Value” on Renilla luciferase (inhibitor 10 μM) amounted to 3.3; at Renilla luciferase (inhibitor 100 μM) it was 16; on Renilla luciferase (inhibitor 1000 μM) it was 78.2. Further, the “Retained Renilla Luciferase Value (%)” value is listed as 30% on Renilla luciferase (inhibitor 10 μM), 6% at Renilla luciferase (inhibitor 100 μM) and 1.1% on Renilla luciferase (inhibitor 1000 μM).

Consider `COc1ccc(CNC(=O)/C=C/c2ccc3[nH]cc(CCN(C)C)c3c2)cc1` [Compound 3068, (E)-3-(3-(2-(dimethylamino)ethyl)-1H-indol-5-yl)-N-(4-methoxybenzyl)acrylamide], for which the values for the remaining activity at 10 µM on firefly luciferase (inhibitor 10 μM) and on Renilla luciferase (inhibitor 10 μM) were 101% and 40%, respectively. In addition, the remaining activity at 100 µM on firefly luciferase (inhibitor 100 μM) is 102%; at Renilla luciferase (inhibitor 100 μM) it was 10%. In addition, the remaining activity at 1000 µM came to 102% on firefly luciferase (inhibitor 1000 μM) and 2.1% on Renilla luciferase (inhibitor 1000 μM). Further, the “inhibitor of Renilla luciferase” value on Renilla luciferase was “excellent inhibitors of Renilla luciferase”. The “Selectivity Value” on Renilla luciferase (inhibitor 10 μM) is 2.5; on Renilla luciferase (inhibitor 100 μM), 10.2; on Renilla luciferase (inhibitor 1000 μM) it was 48.6.

Regarding `COc1ccc(CNC(=O)/C=C/c2ccc3[nH]cc(CCN(C)C)c3c2)c(OC)c1` [Compound 3051, (E)-N-(2,4-dimethoxybenzyl)-3-(3-(2-(dimethylamino)ethyl)-1H-indol-5-yl)acrylamide], the figures for the remaining activity at 10 µM at firefly luciferase (inhibitor 10 μM) and on Renilla luciferase (inhibitor 10 μM) were 102% and 55%, respectively. Moreover, the figures for the remaining activity at 100 µM at firefly luciferase (inhibitor 100 μM) and at Renilla luciferase (inhibitor 100 μM) were 102% and 14%, respectively. Also, the remaining activity at 1000 µM turned out to be 102% on firefly luciferase (inhibitor 1000 μM) and 1.9% on Renilla luciferase (inhibitor 1000 μM). Also, the “inhibitor of Renilla luciferase” value against Renilla luciferase is “excellent inhibitors of Renilla luciferase”. Moreover, the results for the “Selectivity Value” on Renilla luciferase (inhibitor 10 μM), on Renilla luciferase (inhibitor 100 μM) and on Renilla luciferase (inhibitor 1000 μM) were 1.9, 7.3 and 53.7, respectively.

As for `CN(C)CCc1c[nH]c2ccc(/C=C/C(=O)NCc3ccc([N+](=O)[O-])cc3)cc12` [Compound 3063, (E)-3-(3-(2-(dimethylamino)ethyl)-1H-indol-5-yl)-N-(4-nitrobenzyl)acrylamide], the remaining activity at 10 µM came to 102% at firefly luciferase (inhibitor 10 μM) and 63% on Renilla luciferase (inhibitor 10 μM). The remaining activity at 100 µM was 102% at firefly luciferase (inhibitor 100 μM) and 19% on Renilla luciferase (inhibitor 100 μM). The remaining activity at 1000 µM at firefly luciferase (inhibitor 1000 μM) turned out to be 102%; at Renilla luciferase (inhibitor 1000 μM) it was 3.1%. Further, the “inhibitor of Renilla luciferase” value against Renilla luciferase is given as “excellent inhibitors of Renilla luciferase”. Besides, the “Selectivity Value” on Renilla luciferase (inhibitor 10 μM) worked out at 1.6; on Renilla luciferase (inhibitor 100 μM), 5.4; at Renilla luciferase (inhibitor 1000 μM), 33.

`COc1ccc(CNC(=O)/C=C/c2ccc3oc(=O)cc(C)c3c2)cc1` [Compound 3057, (E)-N-(4-methoxybenzyl)-3-(4-methyl-2-oxo-2H-chromen-6-yl)acrylamide]: the remaining activity at 23 µM on firefly luciferase and on Renilla luciferase (inhibitor 23 μM) was 100% throughout. Further, the remaining activity at 153 µM turned out to be 98% at firefly luciferase and 93% at Renilla luciferase (inhibitor 153 μM). In addition, the remaining activity at 1000 µM on firefly luciferase (inhibitor 1000 μM) worked out at 102%; on Renilla luciferase (inhibitor 1000 μM) it was 77.5%. Further, the “inhibitor of Renilla luciferase” value against Renilla luciferase is “suitable inhibitors of Renilla luciferase”. For the same compound, the “Selectivity Value” at Renilla luciferase (inhibitor 23 μM) was 1; on Renilla luciferase (inhibitor 153 μM), 1.1; at Renilla luciferase (inhibitor 1000 μM), 1.3.

`COc1ccc(CNC(=O)/C=C/c2ccc3c(ccc[n+]3C)c2)cc1.[I-]` [Compound 3061, (E)-6-(3-(4-methoxybenzylamino)-3-oxoprop-1-enyl)-1-methylquinolinium iodide]: the remaining activity at 10 µM was 103% on firefly luciferase (inhibitor 10 μM) and 96% at Renilla luciferase (inhibitor 10 μM). The remaining activity at 100 µM on firefly luciferase (inhibitor 100 μM) turned out to be 100%; at Renilla luciferase (inhibitor 100 μM), 85%. The remaining activity at 1000 µM at firefly luciferase (inhibitor 1000 μM) is 82%; on Renilla luciferase (inhibitor 1000 μM), 36%. In addition, the “inhibitor of Renilla luciferase” value at Renilla luciferase was “inhibitors of Renilla luciferase”. In addition, the “Selectivity Value” on Renilla luciferase (inhibitor 10 μM) was found to be 1.1; on Renilla luciferase (inhibitor 100 μM), 1.8; on Renilla luciferase (inhibitor 1000 μM) it was 2.3.

With `COc1ccc(CNC(=O)/C=C/c2ccc3c(c2)c(CCN(C)C)cn3Cc2ccccc2)cc1` [Compound 3055, (E)-3-(1-benzyl-3-(2-(dimethylamino)ethyl)-1H-indol-5-yl)-N-(4-methoxybenzyl)acrylamide], the remaining activity at 10 µM at firefly luciferase (inhibitor 10 μM) was found to be 100%; at Renilla luciferase (inhibitor 10 μM), 85%. Further, the remaining activity at 100 µM at firefly luciferase (inhibitor 100 μM) was 98%; on Renilla luciferase (inhibitor 100 μM), 44%. Besides, the results for the remaining activity at 1000 µM on firefly luciferase (inhibitor 1000 μM) and on Renilla luciferase (inhibitor 1000 μM) were 99% and 20%, respectively. The “inhibitor of Renilla luciferase” value against Renilla luciferase was “inhibitors of Renilla luciferase”. Moreover, the results for the “Selectivity Value” on Renilla luciferase (inhibitor 10 μM), on Renilla luciferase (inhibitor 100 μM) and on Renilla luciferase (inhibitor 1000 μM) were 1.2, 2.2 and 5.0, respectively.

`CCCCCC[N+](C)(C)CCc1c[nH]c2ccc(/C=C/C(=O)NCc3ccc(OC)cc3)cc12.[I-]` [Compound 3078, (E)-N-(2-(5-(3-(4-methoxybenzylamino)-3-oxyprop-1-enyl)-1H-indol-3-yl)ethyl)-N,N-dimethylhexan-1-aminium iodide]: the “Retained Firefly Luciferase Value (%)” value at firefly luciferase (inhibitor 10 μM) amounted to 100%; at firefly luciferase (inhibitor 100 μM) it was 100%; on firefly luciferase (inhibitor 1000 μM), 99%. The figures for the “Selectivity Value” on Renilla luciferase (inhibitor 10 μM), at Renilla luciferase (inhibitor 100 μM) and on Renilla luciferase (inhibitor 1000 μM) were 20, 100 and 990, respectively. For the same compound, the “Retained Renilla Luciferase Value (%)” value on Renilla luciferase (inhibitor 10 μM) is 5.0%; at Renilla luciferase (inhibitor 100 μM), 1.0%; on Renilla luciferase (inhibitor 1000 μM), 0.1%.
